Experimental data: patent US20170266269A1, “METHODS OF IDENTIFYING ANTIGENS FOR VACCINES” (UNIVERSITY OF WASHINGTON THROUGH ITS CENTER FOR …, priority 2014, published 2017)

What was measured:
[1] = tested on: human peripheral blood mononuclear cells (PBMC); experiment: IL-10 ELISPOT of human PBMC with epitope peptides; type: cell-based; settings: CD105 and HIF1α peptides
Text: (§1) A plurality of immunological assays may be used with the methods or processes described herein to test at least one peptides of putative epitopes or nucleic acids encoding peptides of putative epitopes to determine if the peptide of the putative epitope elicits an immune response, often the sub-type of the immune response may be determined, often the immunologic assay may be an ELISPOT assay, an ELISA assay, a multiplex assay or the like. For example, a suitable immunologic assay may include performing an ELISPOT assay using cells derived from donors. The ELISPOT assay may include isolating peripheral blood mononuclear cells (PBMC) from at least 10, preferably at least 40, subjects, often the subjects are human donors. The amount of at least one cytokine production in cells following administration of the peptides of putative epitopes may be determined by the ELISPOT assay. The at least one cytokine may be IFNγ and/or IL-10 such that data indicating cytokine production may represent a positive or a negative response of cells to the peptide sequence of the putative epitope. In some cases, positive responses may have a statistically significant difference (p<0.05) between a mean number of spots from five replicates in the experimental wells and the mean number from no antigen control wells. In other cases, negative responses may not have a statistically significant difference (p<0.05) between a mean number of spots from five replicates in the experimental wells and the mean number from no antigen control wells.
(§2) This example describes the identification of unique and discrete amino acid sequences of antigenic epitopes from breast cancer stem cell and epithelial mesenchymal transformation peptides CD105 and HIF-1a, both of which are promiscuous MHC class II binders and unexpectedly stimulate high (magnitude and incidence) interferon gamma (IFNγ) and low or no interleukin (IL)-10 responses from human peripheral blood mononuclear cells (PBMC). CD105 and HIF1α have been juxtaposed to allow construction of extended epitope sequences for inclusion in either a peptide or DNA plasmid-based multi-antigen polyepitope CD4+ T-cell vaccine targeting breast cancer stem cell and epithelial mesenchymal transformation antigens in cancer patients.
(§3) […] peptides, predicted to bind promiscuously to human MHCII, were selected using web-based algorithms according to the methods described herein. Peripheral blood mononuclear cells (PBMC) from 20 female breast cancer patients were cryopreserved and evaluated by ELISPOT for antigen specific IFNγ or IL-10 secretion, according to our published methods. […] Data is reported as the mean number of spots for each experimental antigen minus the mean number of spots detected in no antigen control wells (corrected spots per well: CSPW). Positive responses were defined by a statistically significant difference (p<0.05) between the mean number of spots from five replicates in the experimental wells and the mean number from no antigen control wells for an individual (see FIG. 15).
(§4) The unpaired, two-tailed Student's t-test, Fischer's exact test or X^2 test was used to evaluate differences between groups. […] All statistical analyses were performed using GraphPad Prism 5.04 (e.g., GraphPad Software).

[2] = tested on: human peripheral blood mononuclear cells (PBMC); experiment: IFNγ ELISPOT of human PBMC with epitope peptides; type: cell-based; settings: CD105 and HIF1α peptides
Text: as §1, §2, §3, §4

“CD105 p626-642: peptide at the C-terminus of CD105 (VVAVAAPASSESSSTNH; UniProt P17813 626-642, looked up, fragment)” was tested, and the IL-10 response [1] was “low or no” and the IFNγ response [2] was “strong”.

With YELAHQLPLPHNVSSH [HIF1α p38-53] the IL-10 response [1] was “no or low” and the IFNγ response [2] was “strong”.

In the case of MRLTISYLRVRKLLDAGDLDIED [HIF1α p60-82], the IL-10 response [1] is reported as “no or low” and the IFNγ response [2] is reported as “strong”.

“GHKEAHILRVLPGHSAGPRTVTV [CD105 p214-236]” was tested, and the IL-10 response [1] was “low or no” and the IFNγ response [2] was “strong”.

For VLLVLSVNSSVFLHLQALGI [CD105 p 96-114], the IL-10 response [1] was “low or no” and the IFNγ response [2] was “strong”.

LHLAYNSSLVTFQEP [CD105 p116-130] was tested, and the IL-10 response [1] was “low or no” and the IFNγ response [2] was “strong”.
